In patent publication US11155517B2, “4-substituted phenylamine derivatives and their use to protect crops by fighting undesired phytopathogenic micoorganisms” (PI INDUSTRIES LTD., priority 2016, dated 2021) one finds inhibition of growth and pest or weed control data, which are given here for 7 molecules.

In assay [1] the test system is Botrytis cinerea. Briefly: Botrytis cinerea (gray mold) in vitro test, radial growth on Potato Dextrose Agar. It is filed as cell-based. The settings on record: 168 h, 300 ppm, seven days, 22° C., read-out: % (control) compared to the untreated check (radial growth).
Assay [2] relates to Rhizoctonia solani. Briefly: Rhizoctonia solani (rice sheath blight/potato black scurf) in vitro test, radial growth on Potato Dextrose Agar. Format: cell-based. The settings on record: 168 h, 300 ppm, seven days, 25° C., read-out: % control compared to the untreated check (radial growth).
Assay [3] deals with Colletotrichum capsici. As to the kind of experiment: Colletotrichum capsici (anthracnose) in vitro test, radial growth on Potato Dextrose Agar. The settings on record: Colletotrichum truncatum, 168 h; 300 ppm; seven days, 25° C.; read-out: % control compared to the untreated check (radial growth). Format: cell-based.
For assay [4], the system named is Pyricularia oryzae. As to the kind of experiment: microbe, parasite or virus in culture. The settings on record: 168 h, read-out: % control compared to the untreated check (radial growth). Format: cell-based.
For assay [5], the system named is Septoria lycopersici. As to the kind of experiment: Septoria lycopersici (leaf spot of tomato) in vitro test, radial growth on Potato Dextrose Agar. It is filed as cell-based. The settings on record: 168 h, seven days, 25° C., read-out: % control compared to the untreated check (radial growth).
Assay [6] concerns Fusarium culmorum. Briefly: Greenhouse Fusarium culmorum test in wheat, preventive. It is filed as in vivo. The settings on record: 24 h, read-out: Efficacy (% control), disease severity vs untreated check. How it is done: Compounds were dissolved in 2% DMSO/Acetone & then mixed with water to calibrated spray volume of 50 ml. This 50 ml spray solution was poured into the spray bottles for further applications.
To test the preventive activity of compounds, healthy young wheat plants raised in the greenhouse were sprayed with active compound preparation at the stated application rates inside the spray cabinets using hallowcone nozzles. One day after treatment, the plants were inoculated with spore suspension (2% Malt) containing 2×10^6 Fusarium culmorum inoculum. The inoculated plants were then kept in greenhouse chamber at 24° C. temperature and 80-90% relative humidity for disease expression.
A visual assessment of compound's performance was carried by rating the disease severity (0-100% scale) on treated plants on 3, 7, 10 and 15 days after application. Efficacy (% control) of the compounds was calculated by comparing the disease rating in the treatment with untreated control. The sprayed plants were also assessed for compound's phytotoxic effects by recording symptoms like necrosis, chlorosis and stunting.

The subject of assay [7] is Botrytis cinera. As to the kind of experiment: Greenhouse Botrytis cinera test in tomato, preventive. Format: in vivo. The settings on record: 24 h, plants sprayed one day before inoculation, read-out: Efficacy (% control), disease severity vs untreated check.
The test system of assay [8] is Fusarium culmorum. Briefly: Fusarium culmorum (foot rot of cereals) in vitro test, radial growth on Potato Dextrose Agar. Format: cell-based. The settings on record: Fusarium culmorum, 168 h, read-out: % control compared to the untreated check (radial growth).
Assay [9] relates to Alternaria solani. As to the kind of experiment: Alternaria solani (early blight of tomato/potato) in vitro test, radial growth on Potato Dextrose Agar. It is filed as cell-based. The settings on record: 168 h, 300 ppm, seven days, 25° C., read-out: % control compared to the untreated check (radial growth).

Structures are written as SMILES.

For `CCN(C)C=Nc1cc(C)c(Cc2ccc(F)c(Cl)c2)cc1C` [Compound 28, N′-(4-(3-chloro-4-fluorobenzyl)-2,5-dimethylphenyl)-N-ethyl-N-methylformimidamide], the inhibition of growth at 300 ppm in assay [1] is greater than 80%; in assay [2], greater than 80%; in assay [3], greater than 80%; in [4], greater than 75%; in assay [5] it was greater than 70%; in assay [8] it was 75%. Further, the inhibition of growth at 300 ppm in assay [9] was greater than 75%. The pest or weed control at 500 ppm in assay [6] and in [7] was 70 to 100% throughout.

As for `CCN(C)C=Nc1cc(C)c(Cc2ccc(C(F)(F)F)cc2)cc1Cl` [Compound 101, N′-(2-chloro-5-methyl-4-(4-(trifluoromethyl)benzyl)phenyl)-N-ethyl-N-methylformimidamide], the inhibition of growth at 300 ppm in assay [1] was greater than 80%; in [2], greater than 80%; in assay [4], greater than 75%; in assay [9], greater than 75%. Besides, the pest or weed control at 500 ppm in assay [6] and in [7] was 70 to 100% in each case.

For `CCN(C)C=Nc1cc(C)c(Cc2cccc(Br)c2)cc1Cl` [Compound 13, N′-(4-(3-bromobenzyl)-2-chloro-5-methylphenyl)-N-ethyl-N-methylformimidamide], the inhibition of growth at 300 ppm in assay [1] is greater than 80%; in assay [2], greater than 80%; in [3] it was greater than 80%; in [4], greater than 75%; in [5], greater than 70%; in [9] it was greater than 75%. The pest or weed control at 500 ppm in assay [6] and in assay [7] was 70 to 100% each time.

Consider `CCN(C)C=Nc1cc(C)c(Cc2ccccc2Cl)cc1C` [Compound 18, N′-(4-(2-chlorobenzyl)-2,5-dimethylphenyl)-N-ethyl-N-methylformimidamide], for which the inhibition of growth at 300 ppm in [1] was greater than 80%; in [2], greater than 80%; in assay [3] it was greater than 80%; in assay [4] it was greater than 75%; in [5], greater than 70%; in [8], 75%. For the same molecule, the inhibition of growth at 300 ppm in assay [9] is greater than 75%. Besides, the pest or weed control at 500 ppm in [6] and in [7] was 70 to 100% in each case.

On to `CCN(C)C=Nc1cc(C)c(Cc2ccccc2Cl)cc1Cl` [Compound 17, N′-(2-chloro-4-(2-chlorobenzyl)-5-methylphenyl)-N-ethyl-N-methylformimidamide], for which the inhibition of growth at 300 ppm is greater than 80% in [1]; greater than 80% in assay [2]; greater than 80% in assay [3]; greater than 75% in assay [4]; greater than 70% in assay [5]; 75% in assay [8]. The inhibition of growth at 300 ppm in assay [9] was greater than 75%. For the same molecule, the pest or weed control at 500 ppm in assay [6] and in assay [7] was 70 to 100% in each case.

In the case of `CCN(C)C=Nc1cc(C)c(Cc2ccc(Cl)cc2)cc1C` [Compound 7, N′-(4-(4-chlorobenzyl)-2,5-dimethylphenyl)-N-ethyl-N-methylformimidamide], the inhibition of growth at 300 ppm in assay [1] is greater than 80%; in assay [2], greater than 80%; in [3], greater than 80%; in assay [4], greater than 75%; in assay [5], greater than 70%; in assay [8] it was 75%. The inhibition of growth at 300 ppm in assay [9] was greater than 75%. Also, the pest or weed control at 500 ppm in [6] and in [7] was 70 to 100% in each case.

`CCN(C)C=Nc1cc(C)c(Cc2ccc(S(C)(=O)=O)cc2)cc1C` [Compound 12, N′-(2,5-dimethyl-4-(4-(methylsulfonyl)benzyl)phenyl)-N-ethyl-N-methylformimidamide]: the inhibition of growth at 300 ppm in [4] and in [9] was greater than 75% in each case. The pest or weed control at 500 ppm in assay [6] and in assay [7] was 70 to 100% throughout.
